Measured values published in patent US10899769B2, “Imidazopiperazinone inhibitors of transcription activating proteins” (Board of Regents, The University of Texas System, priority 2018, dated 2021).

Tests used:
BRD4(49-170) bromodomain = BRD4(49-170) bromodomain (Homo sapiens (Human), UniProt O60885); test: BRD4 AlphaScreen Assay; conditions: binding to biotin-H4(1-21) Ac-K5/8/12/16
Summary of the method: (§1)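 AlphaScreen binding of GST-bromodomain to biotin-H4(1-21) Ac-K5/8/12/16: 5 nM CBP with 20 nM peptide, or 2.5 nM BRD4 with 10 nM peptide, in 50 mM HEPES 7.5, […], 1 mM TCEP, 0.003% Tween-20. Compound preincubated 30 min, then beads 2 h, room temperature. IC50 from variable-slope fit.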

[1] = molecular target: GST-CBP(1081-1197) bromodomain (Homo sapiens (Human), UniProt Q92793); test: CBP AlphaScreen Assay; conditions: binding to biotin-H4(1-21) Ac-K5/8/12/16
GST-CBP(1081-1197) bromodomain, sequence (Q92793 1081-1197): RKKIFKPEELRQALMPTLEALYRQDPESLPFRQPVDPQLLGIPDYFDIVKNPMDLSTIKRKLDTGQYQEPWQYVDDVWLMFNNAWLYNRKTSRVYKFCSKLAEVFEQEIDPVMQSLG
Summary of the method: as §1

SMILES	IC50 (BRD4(49-170) bromodomain) [nM]	IC50 [1] [nM]
Cc1ncc(-c2cc3ccc(C)c(-c4nc(C5CCOCC5)n5c4CN(C)C(=O)C5C)c3cn2)s1 (single isomer, unassigned) [Example 38a]	1810	8
CC1C(=O)N(C)Cc2c(-c3ccc4c(c3)c(-c3cnn(C)c3)nn4C)nc(C3CCOCC3)n21 (centres unmarked) [Example 40, 5,7-Dimethyl-1-(1-methyl-3-(1-methyl-1H-pyrazol-4-yl)-1H-indazol-5-yl)-3-(tetrahydro-2H-pyran-4-yl)-7,8-dihydroimidazo[1,5-a]pyrazin-6(5H)-one]	1040	9
COCCN1CC(c2nc(-c3cccc4nc(-c5cnn(C)c5)c(C(F)F)cc34)c3n2C(C)C(=O)N(C)C3)C1 (centres unmarked) [Example 23, 1-(3-(Difluoromethyl)-2-(1-methyl-1H-pyrazol-4-yl)quinolin-5-yl)-3-(1-(2-methoxyethyl)azetidin-3-yl)-5,7-dimethyl-7,8-dihydroimidazo[1,5-a]pyrazin-6(5H)-one]	24600	94
CC1C(=O)N(C)Cc2c(-c3c(F)ccc4cc(-c5ccn(C)n5)ncc34)nc(C3CCOCC3)n21 (single isomer, unassigned) [Example 90a, 1-(7-fluoro-3-(1-methyl-1H-pyrazol-3-yl)isoquinolin-8-yl)-5,7-dimethyl-3-(tetrahydro-2H-pyran-4-yl)-7,8-dihydroimidazo[1,5a] pyrazin-6(5H)-one]	25000	1000
CN1Cc2c(-c3cccc4nc(-c5cnn(C)c5)c(C(F)F)cc34)nc(C3CCOCC3)n2C(F)C1=O (centres unmarked) [Example 27, 1-(3-(Difluoromethyl)-2-(1-methyl-1H-pyrazol-4-yl)quinolin-5-yl)-5-fluoro-7-methyl-3-(tetrahydro-2H-pyran-4-yl)-7,8-dihydroimidazo[1,5-a]pyrazin-6(5H)-one]	8940	43
CC1C(=O)N(C)Cc2c(-c3c(F)ccc4cc(C5CCOCC5)ncc34)nc(C3CCOCC3)n21 (single isomer, unassigned) [Example 34b, 1-(7-Fluoro-3-(tetrahydro-2H-pyran-4-yl)isoquinolin-8-yl)-5,7-dimethyl-3-(tetrahydro-2H-pyran-4-yl)-7,8-dihydroimidazo[1,5-a]pyrazin-6(5H)-one]	1230	8
C[C@H]1C(=O)N(C)Cc2c(-c3cccc4cc(-c5cnn(C)c5)ncc34)nc(C3CC3)n21 [Example 111a, (S)-3-cyclopropyl-5,7-dimethyl-1-(3-(1-methyl-1H-pyrazol-4-yl)isoquinolin-8-yl)-7,8-dihydroimidazo[1,5-a] pyrazin-6(5H)-one]	25000	510

These reach a lower IC50 (BRD4(49-170) bromodomain). Values come first.

IC50 (BRD4(49-170) bromodomain) [nM]	IC50 [1] [nM]	SMILES
341	2	CC1C(=O)N(C)Cc2c(-c3cccc4cc(-c5cnn(C)c5)ncc34)nc(C3CCOCC3)n21 (centres unmarked) [Example 109, 5,7-dimethyl-1-(3-(1-methyl-1H-pyrazol-4-yl)isoquinolin-8-yl)-3-(tetrahydro-2H-pyran-4-yl)-7,8-dihydroimidazo[1,5-a] pyrazin-6(5H)-one]
195	2	CC1C(=O)N(C)Cc2c(-c3cccc4cc(C5CCOCC5)ncc34)nc(C3CCOCC3)n21 (single isomer, unassigned) [Example 15b, 5,7-dimethyl-3-(tetrahydro-2H-pyran-4-yl)-1-(3-(tetrahydro-2H-pyran-4-yl)isoquinolin-8-yl)-7,8-dihydroimidazo[1,5-a]pyrazin-6(5H)-one]
89	1	C[C@@H]1C(=O)N(C)Cc2c(-c3cccc4cc(-c5cnn(C)c5)ncc34)nc(C3CC3)n21 [Example 111b, (R)-3-cyclopropyl-5,7-dimethyl-1-(3-(1-methyl-1H-pyrazol-4-yl)isoquinolin-8-yl)-7,8-dihydroimidazo[1,5-a] pyrazin-6(5H)-one]
